# Test results: patent US20080214394A1, “N-(4-Pyridyl)Methylsulfonamides For Combating Arthropodal Pests” (BASF Aktiengesellschaft, priority 2005, published 2008)
# What was measured:
# [1] = system: Boll Weevil (Anthonomus grandis); assay: whole plant or invertebrate; format: in vivo; details: eggs sprayed with 20 μl, 3 to 5 days
# [2] = system: Tobacco Budworm (Heliothis virescens); assay: whole plant or invertebrate; format: in vivo; details: 144 h, eggs sprayed with 10 μl, 6 days
compound,measurement,setting,value
"O=S(=O)(NCc1ccnc2ccccc12)c1ccc(Br)s1 [Compound I-70, 5-bromo-thiophene-2-sulfonic acid (quinoline-4-ylmethyl)-amide]",mortality at 2500 ppm,[1],> 50%
same,mortality at 2500 ppm,[2],> 75%
